Values quoted from earlier work as cited in US20100022769A1, “NOVEL POLYNITROGENATED SYSTEMS AS ANTI-HIV AGENTS” (priority 2006, published 2010).

How the values were obtained:
X4 strain of HIV = conditions: subject infected with a X4 strain of HIV
[1] = development abandoned in 2001
[2] = related to its high positive charge in physiological medium
[3] = system: CCR5-dependent replication of HIV; conditions: virus recovered from patients who received AMD3100
CXCR4 = CXCR4 (Homo sapiens, UniProt P61073); conditions: times more active than AMD3100
CXCR4, sequence (P61073 whole entry): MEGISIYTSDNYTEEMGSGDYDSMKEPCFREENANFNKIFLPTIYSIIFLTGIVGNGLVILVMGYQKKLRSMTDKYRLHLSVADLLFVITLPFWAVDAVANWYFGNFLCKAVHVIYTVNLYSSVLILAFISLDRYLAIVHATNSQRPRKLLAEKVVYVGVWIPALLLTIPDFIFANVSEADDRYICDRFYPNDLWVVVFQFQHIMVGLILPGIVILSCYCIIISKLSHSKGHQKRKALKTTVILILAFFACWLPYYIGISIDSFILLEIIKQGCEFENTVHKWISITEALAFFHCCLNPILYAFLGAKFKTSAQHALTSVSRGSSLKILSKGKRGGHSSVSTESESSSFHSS

| SMILES | reduction of the viral load (X4 strain of HIV) | cardiac toxicity [1] | oral bioavailability [2] | inhibiting the in vivo CCR5-dependent replication of HIV [3] | activity relative to AMD3100 (CXCR4) |
| --- | --- | --- | --- | --- | --- |
| c1cc(CN2CCCNCCNCCCNCC2)ccc1CN1CCCNCCNCCCNCC1 [AMD3100] | 0.8-0.9 log 10 | possible cardiac toxicity | lack of oral bioavailability | not effective |  |
| c1ccc(CNCc2ccc(CN3CCCNCCNCCCNCC3)cc2)nc1 [AMD3465] |  |  |  |  | up to 10 times |
